# Source: patent US12077503B2, “Substituted cyclic amides and their use as herbicides” (FMC CORPORATION, priority 2015, dated 2024)
# Key:
# Assay in all cases: Test C preemergence
# Assay type in all cases: in vivo
# [1] = system: crabgrass, large (large crabgrass, Digitaria sanguinalis); settings: for Plant response rating, Crabgrass, Large: scale 0 to 100, 0 no effect, 100 complete control
# Summary of the method: (§1)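 Herbicidal effect, applied preemergence to sown seeds or postemergence to 1- to 4-leaf plants, was scored visually 13 to 15 d after application, 0 to 100 versus controls.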
# [2] = system: foxtail, giant (giant foxtail, Setaria faberii); settings: for Plant response rating, Foxtail, Giant: scale 0 to 100, 0 no effect, 100 complete control
# Summary of the method: as §1
# [3] = system: waterhemp (common waterhemp, Amaranthus rudis); settings: for Plant response rating, Waterhemp: scale 0 to 100, 0 no effect, 100 complete control
# Summary of the method: as §1
# corn (Zea mays) = settings: for Plant response rating, Corn: scale 0 to 100, 0 no effect, 100 complete control
# Summary of the method: as §1
# [4] = system: barnyardgrass (Echinochloa crus-galli); settings: for Plant response rating, Barnyardgrass: scale 0 to 100, 0 no effect, 100 complete control
# Summary of the method: as §1
# [5] = system: johnsongrass (Sorghum halepense); settings: for Plant response rating, Johnsongrass: scale 0 to 100, 0 no effect, 100 complete control
# Summary of the method: as §1
# [6] = system: Galium (catchweed bedstraw, Galium aparine); settings: for Plant response rating, Galium: scale 0 to 100, 0 no effect, 100 complete control
# Summary of the method: as §1
# soybean (Glycine max) = settings: for Plant response rating, Soybean: scale 0 to 100, 0 no effect, 100 complete control
# Summary of the method: as §1
# [7] = system: velvetleaf (Abutilon theophrasti); settings: for Plant response rating, Velvetleaf: scale 0 to 100, 0 no effect, 100 complete control
# Summary of the method: as §1
# [8] = system: morningglory (Ipomoea coccinea); settings: for Plant response rating, Morningglory: scale 0 to 100, 0 no effect, 100 complete control
# Summary of the method: as §1
# [9] = system: nutsedge, yellow (yellow nutsedge, Cyperus esculentus); settings: for Plant response rating, Nutsedge, Yellow: scale 0 to 100, 0 no effect, 100 complete control
# Summary of the method: as §1
# [10] = system: lambsquarters (Chenopodium album); settings: for Plant response rating, Lambsquarters: scale 0 to 100, 0 no effect, 100 complete control
# Summary of the method: as §1
# [11] = system: ryegrass, Italian (Italian ryegrass, Lolium multiflorum); settings: for Plant response rating, Ryegrass, Italian: scale 0 to 100, 0 no effect, 100 complete control
# Summary of the method: as §1
# [12] = system: pigweed (Amaranthus retroflexus); settings: for Plant response rating, Pigweed: scale 0 to 100, 0 no effect, 100 complete control
# Summary of the method: as §1
# [13] = system: ragweed (common ragweed, Ambrosia elatior); settings: for Plant response rating, Ragweed: scale 0 to 100, 0 no effect, 100 complete control
# Summary of the method: as §1
# [14] = system: wheat (winter wheat, Triticum aestivum); settings: for Plant response rating, Wheat: scale 0 to 100, 0 no effect, 100 complete control
# Summary of the method: as §1
# [15] = system: oilseed rape (Brassica napus); settings: for Plant response rating, Oilseed Rape: scale 0 to 100, 0 no effect, 100 complete control
# Summary of the method: as §1
# [16] = 31 g ai/ha, 0 is no effect, 100 is complete control
compound,measurement,setting,value
CN1CC(c2ccc(C(F)(F)F)cc2)C(C(=O)Nc2ccccc2S(C)(=O)=O)C1=O (centres unmarked) [Compound 624],"Plant response rating (scale of 0 to 100), Crabgrass, Large",[1]; [16],95
same,"Plant response rating, Crabgrass, Large",[1]; 62 g ai/ha,100
same,"Plant response rating, Crabgrass, Large",[1]; 125 g ai/ha,100
same,"Plant response rating, Crabgrass, Large",[1]; 250 g ai/ha,98
same,"Plant response rating (scale of 0 to 100), Foxtail, Giant",[2]; [16],85
same,"Plant response rating, Foxtail, Giant",[2]; 62 g ai/ha,90
same,"Plant response rating, Foxtail, Giant",[2]; 125 g ai/ha,90
same,"Plant response rating, Foxtail, Giant",[2]; 250 g ai/ha,95
same,"Plant response rating (scale of 0 to 100), Waterhemp",[3]; [16],85
same,"Plant response rating, Waterhemp",[3]; 62 g ai/ha,90
same,"Plant response rating, Waterhemp",[3]; 125 g ai/ha,90
same,"Plant response rating, Waterhemp",[3]; 250 g ai/ha,100
same,"Plant response rating (scale of 0 to 100), Corn",corn (Zea mays); [16],0
same,"Plant response rating, Corn",corn (Zea mays); 62 g ai/ha,0
same,"Plant response rating, Corn",corn (Zea mays); 125 g ai/ha,5
same,"Plant response rating, Corn",corn (Zea mays); 250 g ai/ha,65
same,"Plant response rating (scale of 0 to 100), Barnyardgrass",[4]; [16],75
same,"Plant response rating, Barnyardgrass",[4]; 62 g ai/ha,90
same,"Plant response rating, Barnyardgrass",[4]; 125 g ai/ha,95
same,"Plant response rating, Barnyardgrass",[4]; 250 g ai/ha,95
same,"Plant response rating (scale of 0 to 100), Johnsongrass",[5]; [16],0
same,"Plant response rating, Johnsongrass",[5]; 62 g ai/ha,0
same,"Plant response rating, Johnsongrass",[5]; 125 g ai/ha,0
same,"Plant response rating, Johnsongrass",[5]; 250 g ai/ha,25
same,"Plant response rating (scale of 0 to 100), Galium",[6]; [16],50
same,"Plant response rating, Galium",[6]; 62 g ai/ha,85
same,"Plant response rating, Galium",[6]; 125 g ai/ha,80
same,"Plant response rating, Galium",[6]; 250 g ai/ha,85
same,"Plant response rating (scale of 0 to 100), Soybean",soybean (Glycine max); [16],0
same,"Plant response rating, Soybean",soybean (Glycine max); 62 g ai/ha,0
same,"Plant response rating, Soybean",soybean (Glycine max); 125 g ai/ha,15
same,"Plant response rating, Soybean",soybean (Glycine max); 250 g ai/ha,40
same,"Plant response rating (scale of 0 to 100), Velvetleaf",[7]; [16],10
same,"Plant response rating, Velvetleaf",[7]; 62 g ai/ha,30
same,"Plant response rating, Velvetleaf",[7]; 125 g ai/ha,45
same,"Plant response rating, Velvetleaf",[7]; 250 g ai/ha,65
same,"Plant response rating (scale of 0 to 100), Morningglory",[8]; [16],0
same,"Plant response rating, Morningglory",[8]; 62 g ai/ha,0
same,"Plant response rating, Morningglory",[8]; 125 g ai/ha,30
same,"Plant response rating, Morningglory",[8]; 250 g ai/ha,35
same,"Plant response rating (scale of 0 to 100), Nutsedge, Yellow",[9]; [16],0
same,"Plant response rating, Nutsedge, Yellow",[9]; 62 g ai/ha,0
same,"Plant response rating, Nutsedge, Yellow",[9]; 125 g ai/ha,25
same,"Plant response rating, Nutsedge, Yellow",[9]; 250 g ai/ha,50
same,"Plant response rating (scale of 0 to 100), Lambsquarters",[10]; [16],35
same,"Plant response rating, Lambsquarters",[10]; 62 g ai/ha,40
same,"Plant response rating, Lambsquarters",[10]; 125 g ai/ha,70
same,"Plant response rating, Lambsquarters",[10]; 250 g ai/ha,60
same,"Plant response rating (scale of 0 to 100), Ryegrass, Italian",[11]; [16],10
same,"Plant response rating, Ryegrass, Italian",[11]; 62 g ai/ha,40
same,"Plant response rating, Ryegrass, Italian",[11]; 125 g ai/ha,30
same,"Plant response rating, Ryegrass, Italian",[11]; 250 g ai/ha,30
same,"Plant response rating (scale of 0 to 100), Pigweed",[12]; [16],80
same,"Plant response rating, Pigweed",[12]; 62 g ai/ha,85
same,"Plant response rating, Pigweed",[12]; 125 g ai/ha,85
same,"Plant response rating, Pigweed",[12]; 250 g ai/ha,90
same,"Plant response rating (scale of 0 to 100), Ragweed",[13]; [16],25
same,"Plant response rating, Ragweed",[13]; 62 g ai/ha,55
same,"Plant response rating, Ragweed",[13]; 125 g ai/ha,75
same,"Plant response rating, Ragweed",[13]; 250 g ai/ha,80
same,"Plant response rating (scale of 0 to 100), Wheat",[14]; [16],0
same,"Plant response rating, Wheat",[14]; 62 g ai/ha,35
same,"Plant response rating, Wheat",[14]; 125 g ai/ha,45
same,"Plant response rating, Wheat",[14]; 250 g ai/ha,80
same,"Plant response rating (scale of 0 to 100), Oilseed Rape",[15]; [16],75
same,"Plant response rating, Oilseed Rape",[15]; 62 g ai/ha,80
same,"Plant response rating, Oilseed Rape",[15]; 125 g ai/ha,85
same,"Plant response rating, Oilseed Rape",[15]; 250 g ai/ha,85
